The test system of data set [1] is human squamous cell carcinomas HSC-4. In words: Cytotoxicity CC50, MTT assay, HSC-4. The protocol:
(§1) In addition, the compounds were evaluated against human squamous cell carcinomas (HSC-2 and HSC-4) and human promyelocytic leukemia neoplasms (HL-60) and compared with normal cells, i.e. human gingival fibroblasts (HGF), human pulp cells (HPC) and human periodontal ligament fibroblasts (HPLF).
(§2) MTT stands for 3-(4,5-dimethylthiazol-2-yl)-2,5-diphenyltetrazolium bromide). The cells were incubated with varying concentrations of the compounds along with untreated cells for 24 h and the absorbance at 540 nm measured. In the case of the HL-60 assay, the trypan blue exclusion method was followed and cell viability was determined using a haemocytometer. The CC50 values were obtained from dose-response curves (Sakagami, H.; Satoh, K.; Ohata, H.; Takahashi, H.; Yoshida, H.; Iida, M.; Kuribayashi, N.; Sakagami, T.; Momose, K.; Takeda, M. Anticancer Res. 1996, 16, 2635-2644). The general methods used in culturing the cells employed in these cytotoxicity experiments have been described previously (Kawase, M.; Sakagami, H.; Motohashi, N.; Hauer, H.; Chatterjee, S. S.; Spengler, G.; Vigyikanne, A. V.; Molnár, A.; Molnár, J. In Vivo 2005, 19, 705-712; and Takeuchi, R.; Hoshijima, H.; Onuki, N.; Nagasaka, H.; Chowdhury, S. A.; Kawase, M.; Sakagami, H. Anticancer Res. 2005, 25, 4037-4042). In brief, the malignant cells were obtained from Professor Nagumo, Showa University, Japan. The HGF, HPC and HPLF cells were prepared from human periodontal tissue after obtaining informed consent according to the guidelines of Meikai University Ethics Committee, Japan (No. 0206). Since normal cells have a short lifespan, cells at the 3-7 population doubling time were used. With the exception of the HL-60 neoplasm, the cells were cultured in DMEM containing heat-inactivated FBS (10%) at 37° C. in a humidified carbon dioxide atmosphere and subcultured by trypsinization. The HL-60 cells were cultured in a similar fashion except that RPMI 1640 media was employed.

Data set [2] deals with human promyelocytic leukemia HL-60. As to the kind of experiment: Cytotoxicity CC50, trypan blue exclusion, HL-60. The protocol: as §1, §2
The test system of data set [3] is human periodontal ligament fibroblasts (HPLF). In words: Cytotoxicity CC50, MTT assay, normal HPLF cells. The protocol: as §1, §2
Data set [4] has as its system HSC-2, HSC-4 and HL-60 malignant cells. In words: Average CC50 for malignant cells. How it is done: as §1, §2
Data set [5] relates to human gingival fibroblasts (HGF). In words: Cytotoxicity CC50, MTT assay, normal HGF cells. How it is done:
as §1, §2

Data set [6] concerns human tumour cell lines. As to the kind of experiment: Panel of human tumour cell lines, all cell lines (mean graph midpoint). The class given is cell-based. Conditions: mean graph midpoint, average of 49 (38-59) human tumour cell lines, 48 h incubation; read-out: All cell lines IC50. How it is done: A number of compounds of the invention were further assessed against numerous human malignant cell lines. An average of 49 cell lines from nine different neoplastic diseases, namely leukemia, melanoma, non-small cell lung, colon, central nervous system, ovarian, renal, prostate, and breast cancers were employed.
(§3) In addition, both 5-fluorouracil and melphalan were evaluated towards 57 cell lines. […] MG MID is the average of the potencies of the compound to approximately 50 neoplastic cell lines.

Data set [7] relates to COLO 205. In words: Human tumour cell line panel, colon cancer COLO 205. Type of data set: cell-based. Conditions: 48 h; read-out: Colon cancer cells, IC50(μM) COLO 205. How it is done:
as §3

Data set [8] deals with RPMI 8226. As to the kind of experiment: Human tumour cell line panel, leukemic RPMI 8226. The class given is cell-based. Conditions: 48 h; read-out: Leukemic cells, IC50(μM) RPMI 8226. How it is done: as §3
Data set [9] relates to human pulp cells (HPC). In words: Cytotoxicity CC50, MTT assay, normal HPC cells. The protocol: as §1, §2
For data set [10], the system named is SW 620. In words: Human tumour cell line panel, colon cancer SW 620. Type of data set: cell-based. Conditions: 48 h; read-out: Colon cancer cells, IC50(μM) SW 620. The protocol: as §3
The test system of data set [11] is KM 12. As to the kind of experiment: Human tumour cell line panel, colon cancer KM 12. The class given is cell-based. Conditions: read-out: Colon cancer cells, IC50(μM) KM 12. How it is done: as §3
Data set [12] has as its system HCT 116. As to the kind of experiment: Human tumour cell line panel, colon cancer HCT 116. The class given is cell-based. Conditions: 48 h; read-out: Colon cancer cells, IC50(μM) HCT 116. How it is done:
as §3

Data set [13] concerns K 562. In words: Human tumour cell line panel, leukemic K 562. Conditions: 48 h; read-out: Leukemic cells, IC50(μM) K 562. The class given is cell-based. The protocol:
as §3

Data set [14] concerns human squamous cell carcinomas HSC-2. In words: Cytotoxicity CC50, MTT assay, HSC-2. How it is done:
as §1, §2

In data set [15] the test system is HCT 15. As to the kind of experiment: Human tumour cell line panel, colon cancer HCT 15. The class given is cell-based. Conditions: 48 h; read-out: Colon cancer cells, IC50(μM) HCT 15. How it is done:
as §3

In data set [16] the test system is murine L-5178 lymphoma cells transfected with the human MDR1 gene. As to the kind of experiment: MDR reversal, rhodamine 123 fluorescence activity ratio. Conditions: FAR >1 indicates MDR reversal; for FAR value 4 μg/ml: compound 4 μg/ml; for FAR value 40 μg/ml: compound 40 μg/ml. How it is done: A solution of the test compound (2 mg/ml, 10 μl) in dimethylsulfoxide was added to aliquots of the cell suspension and incubated at room temperature for 10 minutes. […] The cells were washed twice and resuspended in PBS (pH 7.4) after which the fluorescence was measured using a Beckton Dickinson FACScan instrument. The fluorescence of the cells was measured in treated MDR cells (F1), untreated MDR cells (F2), treated parental cells (F3) […] were obtained from the following equation, viz (F1/F2)/(F3/F4).

Setting [17] is: read-out: CC50(μM) HSC-4, 24 h, MTT, average of two determinations.
[18] abbreviates: read-out: CC50(μM) HL-60, 24 h, trypan blue exclusion, average of two determinations.
Setting [19] is: read-out: CC50(μM) HPLF, normal cells, 24 h, MTT.
[20] abbreviates: average CC50 for HSC-2, HSC-4 and HL-60 malignant cells.
Setting [21] is: read-out: CC50(μM) HGF, normal cells, 24 h, MTT.
[22] abbreviates: read-out: CC50(μM) HPC, normal cells, 24 h, MTT.
Where [23] appears, read: read-out: CC50(μM) HSC-2, 24 h, MTT, average of two determinations.

Where two headings read alike, the source gives them in different places. Some results are limits rather than exact numbers.

With “1-[4-(2-Diethylaminoethoxy)phenylcarbonyl]-3,5-bis(phenylmethylene)-4-piperidone hydrochloride hemihydrate [Compound 4a]”, the CC50 in data set [1] (setting [17]) stood at 2 µM; in data set [2] (setting [18]), 0.61 µM; in data set [3] (setting [19]), 6 µM; in data set [5] (setting [21]) it was 4.2 µM; in data set [9] (setting [22]), 12 µM; in data set [14] (setting [23]), 3.1 µM. Further, the “CC50(μM) ave” value in data set [4] (setting [20]) stood at 1.9 µM. Besides, the IC50 in data set [6] is less than 1.38 µM; in [7], 2.63 µM; in data set [8] it was less than 0.01 µM; in [10] it was 1.35 µM; in [11], 1.74 µM; in data set [12], less than 0.01 µM. Further, the IC50 was determined as 0.043 µM in data set [13] and 1.17 µM in [15].
With “1-[4-(2-Dimethylaminoethoxy)phenylcarbonyl]-3,5-bis(4-nitrophenylmethylene)-4-piperidone hydrochloride hemihydrate [Compound 3c]”, the CC50 in data set [1] (setting [17]) stood at 0.71 µM; in data set [2] (setting [18]), 0.31 µM; in [3] (setting [19]), 5.9 µM; in [5] (setting [21]) it was 7 µM; in data set [9] (setting [22]), 5.2 µM; in data set [14] (setting [23]), 0.93 µM.
For the molecule “1-[4-{2-(1-Piperidinyl)ethoxy}phenylcarbonyl]-3,5-bis(phenylmethylene)-4-piperidone hydrochloride hemihydrate [Compound 5a]”, the CC50 in data set [1] (setting [17]) is 2.5 µM; in [2] (setting [18]), 1.4 µM; in [3] (setting [19]), 7.4 µM; in [5] (setting [21]), 4.6 µM; in [9] (setting [22]) it was 12 µM; in [14] (setting [23]), 3 µM. Further, the “CC50(μM) ave” value in [4] (setting [20]) worked out at 2.3 µM.
Regarding “1-[4-{2-(4-Morpholinyl)ethoxy}phenylcarbonyl]-3,5-bis(4-nitrophenylmethylene)-4-piperidone hydrochloride hemihydrate [Compound 6c]”, the CC50 in [1] (setting [17]) came out at 0.74 µM; in data set [2] (setting [18]), 0.35 µM; in data set [3] (setting [19]), 9.3 µM; in data set [5] (setting [21]), 12 µM; in [9] (setting [22]), 8.2 µM; in data set [14] (setting [23]), 0.76 µM.
Take `O=C1C(=Cc2ccc(Cl)cc2)CNCC1=Cc1ccc(Cl)cc1` [Compound 1b]: the CC50 turned out to be 20 µM in data set [1]; 22 µM in data set [2]; 56 µM in data set [3]; 69 µM in [5]; 130 µM in data set [9]; 18 µM in [14]. Moreover, in data set [16], the “FAR value 4 μg/ml” value worked out at 1.25. In addition, the “FAR value 40 μg/ml” value in [16] is reported as 0.91. Also, the “CC50(μM) ave” value in [4] was 20 µM.
On to `Cl.Cl.O.O.O.O=C1C(=Cc2ccc([N+](=O)[O-])cc2)CN(C(=O)c2ccc(OCCN3CCCCC3)cc2)CC1=Cc1ccc([N+](=O)[O-])cc1.O=C1C(=Cc2ccc([N+](=O)[O-])cc2)CN(C(=O)c2ccc(OCCN3CCCCC3)cc2)CC1=Cc1ccc([N+](=O)[O-])cc1` [Compound 5c, 3,5-bis(4-Nitrophenylmethylene)-1-[4-{2-(1-piperidinyl)ethoxy}phenylcarbonyl]-4-piperidone hydrochloride 1.5 hydrate], for which the CC50 turned out to be 0.9 µM in data set [1]; 0.29 µM in data set [2]; 4.9 µM in data set [3]; 8 µM in [5]; 3.9 µM in data set [9]; 0.86 µM in [14]. For the same molecule, the “FAR value 4 μg/ml” value in data set [16] stood at 145. The “FAR value 40 μg/ml” value in data set [16] amounted to 51.5.
Consider `Cc1ccc(C=C2CN(C(=O)c3ccc(OCCN4CCCCC4)cc3)CC(=Cc3ccc(C)cc3)C2=O)cc1.Cc1ccc(C=C2CN(C(=O)c3ccc(OCCN4CCCCC4)cc3)CC(=Cc3ccc(C)cc3)C2=O)cc1.Cl.Cl.O` [Compound 5d], for which, in [16], the “FAR value 4 μg/ml” value stood at 179 and the “FAR value 40 μg/ml” value is reported as 146. The “CC50(μM) ave” value in data set [4] worked out at 3.1 µM.
In the case of `Cl.O=C1C(=Cc2ccc(Cl)cc2)CN(C(=O)c2ccc(OCCN3CCOCC3)cc2)CC1=Cc1ccc(Cl)cc1` [Compound 6b], in data set [16], the “FAR value 4 μg/ml” value is given as 76.0 and the “FAR value 40 μg/ml” value is given as 6.88. Moreover, in data set [4], the “CC50(μM) ave” value is 42 µM.
For the molecule `CC[N+](C)(CC)CCOc1ccc(C(=O)N2CC(=Cc3ccc(Cl)cc3)C(=O)C(=Cc3ccc(Cl)cc3)C2)cc1.[I-]` [Compound 7b, 3,5-bis(4-Chlorophenylmethylene)-1-[4-(2-diethylaminoethoxy)phenylcarbonyl]-4-piperidone methoiodide], the CC50 in [1] is 220 µM; in data set [2] it was 64 µM; in data set [3], 9.4 µM; in data set [4] it was not below 228 µM; in data set [5] it was more than 400 µM; in data set [9] it was more than 400 µM. This molecule yielded a CC50 in data set [14] of more than 400 µM. Moreover, the “FAR value 4 μg/ml” value in [16] was found to be 1.21. The “FAR value 40 μg/ml” value in data set [16] turned out to be 1.85.
Consider `CC[N+](C)(CC)CCOc1ccc(C(=O)N2CC(=Cc3ccc([N+](=O)[O-])cc3)C(=O)C(=Cc3ccc([N+](=O)[O-])cc3)C2)cc1.[I-]` [Compound 7c, 1-[4-(2-Diethylaminoethoxy)phenylcarbonyl]-3,5-bis(4-nitrophenylmethylene)-4-piperidone methoiodide], for which the CC50 in [1] stood at 61 µM; in data set [2] it was 29 µM; in [3], 13 µM; in data set [5], 93 µM; in data set [9], 130 µM; in [14], 67 µM. The “FAR value 4 μg/ml” value in data set [16] came to 1.03. In addition, the “FAR value 40 μg/ml” value in data set [16] is on record as 1.22. Besides, the “CC50(μM) ave” value in data set [4] is 52 µM.
Take “[4-(2-Dimethylaminoethoxy)phenylcarbonyl]-3,5-bis(phenylmethylene)-4-piperidone hydrochloride [Compound 3a]”: the CC50 in data set [1] (setting [17]) amounted to 2.1 µM; in data set [2], 1 µM; in data set [3] it was 8.9 µM; in [14] (setting [23]), 3.8 µM. Moreover, the “FAR value 4 μg/ml” value in [16] turned out to be 45.5. The “FAR value 40 μg/ml” value in data set [16] amounted to 51.6. The “CC50(μM) ave” value in [4] (setting [20]) worked out at 2.3 µM.

The values above are taken from patent publication US7582655B2, “Antineoplastic compounds” (University of Saskatchewan, priority 2005, dated 2009).
